How the values were obtained:
Oryctolagus cuniculus = organism: Oryctolagus cuniculus; experiment: Compound was tested for ability to relax potassium-contracted rabbit aorta smooth muscle; type: functional
[1] = system: Voltage-dependent L-type calcium channel (Cavia porcellus); experiment: Bmax2 from dihydropyridine receptor binding assay in guinea pig myocardial membranes
[2] = molecular target: Voltage-dependent L-type calcium channel (Cavia porcellus); experiment: Dissociation constant for inhibition of [3H]nitrendipine binding to guinea pig myocardial membranes; settings: read-out: Kd1
[3] = molecular target: Voltage-dependent L-type calcium channel (Cavia porcellus); experiment: as above; settings: read-out: Kd2
[4] = system: Voltage-dependent L-type calcium channel (Cavia porcellus); experiment: Bmax1 from dihydropyridine receptor binding assay in guinea pig myocardial membranes
[5] = molecular target: Voltage-dependent L-type calcium channel (Cavia porcellus); experiment: Dissociation constant for inhibition of [3H]nitrendipine binding to guinea pig myocardial membranes; settings: read-out: Kd2; remark: listed apart in the source

Compound	IC50 (Oryctolagus cuniculus) [nM]	Bmax2 [1] [%]	Kd [2] [nM]	Kd [3] [nM]	Bmax1 [4] [%]	Kd [5] [nM]
COC(=O)C1=C(C)NC(C)=C(C(=O)OC)C1c1ccccc1[N+](=O)[O-] [NIFEDIPINE]	0.5					
COC(=O)C1=C(C)N=C(C)/C(=C(\O)OC)C1c1cccc(C#N)c1 (stereo unspecified)	11.1	17	2.15	152	83	
COC(=O)C1=C(C)N=C(C)/C(=C(\O)OC)C1c1cc([N+](=O)[O-])ccc1Cl (stereo unspecified)	13.6	51	0.95	74.4	49	
COC(=O)C1=C(C)N=C(C)/C(=C(\O)OC)C1c1ccccc1Cl (stereo unspecified)	3	79	0.006	1	21	
COC(=O)C1=C(C)N=C(C)/C(=C(\O)OC)C1c1cccc([N+](=O)[O-])c1Cl (stereo unspecified)	1	21	0.23	85	79	
COC(=O)C1=C(C)N=C(C)/C(=C(\O)OC)C1c1ccc([N+](=O)[O-])cc1Cl (stereo unspecified)	185	92	1.25		8	107

Reference: ChEMBL document CHEMBL1124111, “Studies directed toward ascertaining the active conformation of 1,4-dihydropyridine calcium entry blockers” (J Med Chem, 1988)
